Key:
OCTN2 [1] = molecular target: T1, OCTN2 (Homo sapiens, UniProt O76082); test: inhibition of […]FMC uptake in H460 cells by co-incubation; type: cell-based; details: HBSS, 37 °C, 60 min; inhibitor concentration of this test not given
T1 construct: gene SLC22A5; endogenous full-length transporter in intact H460 cells; identity supported by OCTN2 siRNA knockdown (siRNA L-007456-00-0005)
T1 sequence (O76082 1-557): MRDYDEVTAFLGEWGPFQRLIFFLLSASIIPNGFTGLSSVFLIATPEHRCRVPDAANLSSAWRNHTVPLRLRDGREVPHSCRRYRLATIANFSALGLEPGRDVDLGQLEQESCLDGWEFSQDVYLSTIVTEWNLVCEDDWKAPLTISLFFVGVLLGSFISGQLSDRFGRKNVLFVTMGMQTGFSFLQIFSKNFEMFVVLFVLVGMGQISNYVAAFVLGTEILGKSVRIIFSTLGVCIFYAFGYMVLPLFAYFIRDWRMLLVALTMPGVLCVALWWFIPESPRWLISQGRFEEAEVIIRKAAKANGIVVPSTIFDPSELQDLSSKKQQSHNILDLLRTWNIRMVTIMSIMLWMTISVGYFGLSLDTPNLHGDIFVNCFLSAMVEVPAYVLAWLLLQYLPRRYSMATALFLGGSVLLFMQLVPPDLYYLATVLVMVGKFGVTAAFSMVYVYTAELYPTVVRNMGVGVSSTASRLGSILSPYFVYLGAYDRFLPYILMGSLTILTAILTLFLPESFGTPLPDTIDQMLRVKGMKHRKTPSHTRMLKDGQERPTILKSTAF

OCTN2 [2] = molecular target: T1, OCTN2; test: competitive inhibition of […]FMC uptake in H460 cells, gamma counting; type: cell-based; details: HBSS, 37 °C, 60 min; [18F]FMC as tracer; endogenous transporter; n = 3

Row | % reduction of [18F]FMC uptake (OCTN2 [1]) [%] | IC50 (OCTN2 [2]) [µM] | Compound
1 | 78.1 ± 10.2 | – | C[N+](C)(C)NCCC(=O)[O-] [meldonium]
2 | – | 4.8 ± 1.6 | C[N+](C)(C)C[C@H](O)CC(=O)O [ʟ-carnitine]

Reference: article PMC12948245, “Fluorinated Carnitine Derivatives as Tools to Visualise Carnitine Transport and Metabolism” (Advanced Science, 2025)
